Tests used:
[1] = tested on: soluble epoxide hydrolase (sEH); assay: Fluorescent assay for mouse and human soluble epoxide hydrolase (CMNPC substrate); assay type: biochemical
Source text: Fluorescent Assay for Mouse and Human Soluble Epoxide Hydrolase Recombinant mouse sEH (MsEH) and human sEH (HsEH) were produced in a baculovirus expression system as previously reported. Grant et al., J. Biol. Chem., 268:17628-17633 (1993); Beetham et al., Arch. Biochem. Biophys., 305:197-201 (1993). The expressed proteins were purified from cell lysate by affinity chromatography. Wixtrom et al., Anal. […] Protein concentration was quantified using the Pierce BCA assay using bovine serum albumin as the calibrating standard. […] Solutions: Bis/Tris HCl 25 mM 7.0 containing 0.1 mg/mL of BSA (buffer […] at 0.25 mM in DMSO. Mother solution of enzyme in buffer A (Mouse sEH at 6 μg/mL and Human sEH at 5 μg/mL). Inhibitor dissolved in DMSO at the appropriate concentration. Protocol: In a black 96 well plate, fill all the wells with 150 μL of buffer A. Add 2 μL of DMSO in well A2 and A3, and then add 2 μL of inhibitor solution in A1 and A4 through A12. Add 150 μL of buffer A in a row A, then mix several time and transfer 150 μL to row B. Repeat this operation up to row H. The 150 μL removed from row H go to the trash. Add 20 μL of buffer A in column 1 and 2, then add 20 μL of enzyme solution to column 3 to 12. Incubate the plate for 5 minutes in the plate reader at 30° C. During incubation prepare the working solution of substrate by mixing 3.68 mL of buffer A (4×0.920 mL) with 266 μL (2×133 μL) of substrate solution). At t=0, add 30 μL of working substrate solution with multi-channel pipette labeled “Briggs 303” and start the reading ([S]final: 5 μM). Read with ex: 330 nm (20 nm) and em: 465 nm (20 nm) every 30 second for 10 minutes. The velocities are used to analyze and calculate the IC50s.

| % I ([1]; Conc of I 500 nM) | melting point | % I ([1]; Conc of I 5000 nM) | % I ([1]; Conc of I 50 nM) | Compound |
| --- | --- | --- | --- | --- |
| 96% | 191 to 194 °C |  |  | COCCN1CCN(C(=O)c2ccc(NC(=O)NC34CC5CC(CC(C5)C3)C4)cc2)CC1 [Compound 4, 1-Adamantan-1-yl-3-{4-[4-(2-methoxy-ethyl)-piperazine-1-carbonyl]-phenyl}-urea] |
| 96% | 190 to 196 °C |  |  | CN1CCN(C(=O)c2ccc(NC(=O)NC34CC5CC(CC(C5)C3)C4)cc2)CC1 [Compound 5, 1-Adamantan-1-yl-3-[4-(4-methyl-piperazine-1-carbonyl)-phenyl]-urea] |
| 64% | 238 to 241 °C |  |  | O=C(Nc1ccc(Cl)cc1)Nc1ccc(C(=O)N2CCC(C(=O)O)CC2)cc1 [Compound 9, 1-{4-[3-(4-Chloro-phenyl)-ureido]-benzoyl}-piperidine-4-carboxylic acid] |
|  | 272 to 275 °C | 99% |  | O=C(Nc1ccc(C(=O)N2CCC(C(=O)O)CC2)cc1)NC12CC3CC(CC(C3)C1)C2 [Compound 12, 1-[4-(3-Adamantan-1-yl-ureido)-benzoyl]-piperidine-4-carboxylic acid] |
| 77% | 248 to 250 °C |  |  | COCCN1CCN(C(=O)c2ccc(NC(=O)Nc3ccc(F)cc3)cc2)CC1 [Compound 25, 1-(4-Fluoro-phenyl)-3-{4-[4-(2-methoxy-ethyl)-piperazine-1-carbonyl]-phenyl}-urea] |
|  |  |  | 88% | O=C(Nc1ccc(OC(F)(F)F)cc1)Nc1ccc(C(=O)N2CCOCC2)cc1 [Compound 26, 1-[4-(Morpholine-4-carbonyl)-phenyl]-3-(4-trifluoromethoxy-phenyl)-urea] |
|  |  |  | 84% | CN1CCN(C(=O)c2ccc(NC(=O)Nc3ccc(OC(F)(F)F)cc3)cc2)CC1 [Compound 27, 1-[4-(4-Methyl-piperazine-1-carbonyl)-phenyl]-3-(4-trifluoromethoxy-phenyl)-urea] |
|  | 235 to 240 °C |  | 91% | COCCN1CCN(C(=O)c2ccc(NC(=O)Nc3ccc(OC(F)(F)F)cc3)cc2)CC1 [Compound 28, 1-{4-[4-(2-Methoxy-ethyl)-piperazine-1-carbonyl]-phenyl}-3-(4-trifluoromethoxy-phenyl)-urea] |
| 94% | 193 to 197 °C |  |  | O=C(Nc1ccc(C(F)(F)F)cc1)Nc1cccc(C(=O)N2CCC(C(=O)O)CC2)c1 [Compound 29, 1-{3-[3-(4-Trifluoromethyl-phenyl)-ureido]-benzoyl}-piperidine-4-carboxylic acid] |
|  |  |  | 88% | CN1CCN(C(=O)c2ccc(NC(=O)Nc3ccc(C(F)(F)F)cc3)cc2F)CC1 [Compound 30, 1-[3-Fluoro-4-(4-methyl-piperazine-1-carbonyl)-phenyl]-3-(4-trifluoromethyl-phenyl)-urea] |
|  |  |  | 92% | CC(C)N1CCN(C(=O)c2ccc(NC(=O)Nc3ccc(OC(F)(F)F)cc3)cc2)CC1 [Compound 32, 1-[4-(4-Isopropyl-piperazine-1-carbonyl)-phenyl]-3-(4-trifluoromethoxy-phenyl)-urea] |
| 95% |  |  |  | CN1CCN(C(=O)c2cc(NC(=O)Nc3ccc(C(F)(F)F)cc3)ccc2F)CC1 [Compound 33, 1-[4-Fluoro-3-(4-methyl-piperazine-1-carbonyl)-phenyl]-3-(4-trifluoromethyl-phenyl)-urea] |
|  |  |  | 93% | CC(C)N1CCN(C(=O)c2ccc(NC(=O)Nc3ccc(C(F)(F)F)cc3)cc2)CC1 [Compound 34, 1-[4-(4-Isopropyl-piperazine-1-carbonyl)-phenyl]-3-(4-trifluoromethyl-phenyl)-urea] |
| 92% |  |  |  | CC(C)N1CCN(C(=O)c2cccc(NC(=O)Nc3ccc(C(F)(F)F)cc3)c2)CC1 [Compound 35, 1-[3-(4-Isopropyl-piperazine-1-carbonyl)-phenyl]-3-(4-trifluoromethyl-phenyl)-urea] |
| 95% | 236 to 240 °C |  |  | CN(CC(=O)O)C(=O)C1CCC(NC(=O)NC23CC4CC(CC(C4)C2)C3)CC1 (stereo not shown) [Compound 36, {[4-(3-Adamantan-1-yl-ureido)-cyclohexanecarbonyl]-methyl-amino}-acetic acid] |
| 88% | 150 to 156 °C |  |  | CN(C)CCN(C)C(=O)c1ccc(NC(=O)NC23CC4CC(CC(C4)C2)C3)cc1 [Compound 37, 4-(3-Adamantan-1-yl-ureido)-N-(2-dimethylamino-ethyl)-N-methyl-benzamide] |
| 81% | 89 to 94 °C |  |  | CN(C)CCN(C)C(=O)c1cccc(NC(=O)NC23CC4CC(CC(C4)C2)C3)c1 [Compound 38, 3-(3-Adamantan-1-yl-ureido)-N-(2-dimethylamino-ethyl)-N-methyl-benzamide] |
| 86% | 226 to 233 °C |  |  | CN(CC(=O)N1CCOCC1)C(=O)c1ccc(NC(=O)Nc2ccc(C(F)(F)F)cc2)cc1 [Compound 39, N-Methyl-N-(2-morpholin-4-yl-2-oxo-ethyl)-4-[3-(4-trifluoromethyl-phenyl)-ureido]-benzamide] |
| 92% | 159 to 163 °C |  |  | O=C(NC1CCCCC1)NC1CCC(C(=O)N2CCOCC2)CC1 (stereo not shown) [Compound 40, 1-Cyclohexyl-3-[4-(morpholine-4-carbonyl)-cyclohexyl]-urea] |
|  |  |  | 93% | CN(CCN1CCOCC1)C(=O)c1ccc(NC(=O)Nc2ccc(C(F)(F)F)cc2)cc1 [Compound 41, N-Methyl-N-(2-morpholin-4-yl-ethyl)-4-[3-(4-trifluoromethyl-phenyl)-ureido]-benzamide] |

| Compound | % I ([1]; Conc of I 500 nM) | melting point | % I ([1]; Conc of I 5000 nM) | % I ([1]; Conc of I 50 nM) |
| --- | --- | --- | --- | --- |
| O=C(NC1CCC(C(=O)N2CCOCC2)CC1)NC12CC3CC(CC(C3)C1)C2 (stereo not shown) [Compound 11, 1-Adamantan-1-yl-3-[4-(morpholine-4-carbonyl)-cyclohexyl]-urea] | 96% | 128 to 131 °C |  |  |
